Here are results for 6 molecules from patent US10350210B2, “EGFR and ALK dual inhibitor” (PRECEDO PHARMACEUTICALS CO., LTD, priority 2015, dated 2019).

The subject of assay [1] is NCI-H1975. The assay can be described thus: Growth of cancer cells (Cell Titer-Glo viability), NCI-H1975. Format: cell-based. To be noted: Homo sapiens; NCI-H1975 (EGFR L858R/T790M double mutant), 72 hrs. From the text: (§1) By testing the effect of the novel kinase inhibitors on the proliferation of cancer cells, the selectivity of the compounds of the present disclosure in inhibiting the proliferation of cancer cells was further assessed. In this example, human non-small cell lung cancer cell NCI-H1975 (expressing EGFR L858R/T790M double mutant gene), human skin squamous carcinoma cell A431 (expressing wild-type EGFR gene), non-small cell lung cancer NCI-H3255 (expressing EGFR L858R mutant gene), non-small cell lung cancer cell NCI-H3122 (expressing ALK gene), human non-small cell lung cancer cell A549 (expressing wild-type EGFR gene), human non-small cell lung cancer cell NCI-H2122 (expressing wild-type EGFR gene), human non-small cell lung cancer cell NCI-H460 (expressing wild-type EGFR gene), human non-small cell lung cancer cell PC-9 (expressing EGFR delE746_A750 mutant gene), Chinese hamster ovary cell CHO (Cricetulus griseus, hamster, Chinese, ovary), Chinese hamster lung cell CHL, human non-small cell lung cancer cell HCC827 (expressing mutant EGFR del19 gene), human lung adenocarcinoma cell HCC4006 (expressing mutant EGFR del19 gene), human non-small cell lung cancer cell NCI-H2228 (expressing wild-type ALK gene), and mouse primary B cell BaF3 were used, and the above cells were all purchased from ATCC (US). In addition, mouse BaF3-TEL-ALK (stably expressing ALK kinase), mouse BaF3-ALK-F1174L (stably expressing mutant ALK F1174L kinase), mouse BaF3-NPM-ALK (stably expressing ALK kinase), mouse BaF3-TEL-EGFR (stably expressing EGFR kinase), mouse BaF3-TEL-EGFR-T790M (stably expressing EGFR T790M mutant kinase), mouse BaF3-FL-EGFR-Del19 (stably expressing EGFR delE746_A750 mutant kinase), mouse BaF3-TEL-EGFR-L858R (stably expressing EGFR L858R mutant kinase), mouse BaF3-FL-EGFR-T790M-L858R (stably expressing EGFR T790M/L858R mutant kinase), mouse BaF3-TEL-INSR (stably expressing INSR protein), mouse BaF3-TEL-IGF1R (stably expressing IGF1R Protein), mouse BaF3-EML4-ALK (stably expressing EML4-ALK Protein), mouse BaF3-TEL-JAK3 (stably expressing JAK3 kinase protein), mouse BaF3-TEL-CSF1R (stably expressing CSF1R protein), and mouse BaF3-TEL-ALK-F1196M (stably expressing ALK F1196M mutant kinase) were also used in this example. The above cell lines were all established by our laboratory via the following process: kinase proteins or protein domain sequences of human ALK, ALK F1174L, EGFR, EGFR T790M, EGFR delE746_A750, EGFR L858, EGFR T790M/L858R, INSR, IGF1R, EML4-ALK, JAK3, CSF1R, ALK F1196M were amplified respectively by PCR, and were respectively inserted into MSCV-Puro vector (Clontech) with N-terminal TEL fragments and/or NPM fragments and/or TPR fragments; the resultants were stably transfected into mouse BaF3 cells by the means of retrovirus, and the IL-3 growth factors were removed, and eventually the ALK, ALK F1174L, EGFR, EGFR T790M, EGFR delE746_A750, EGFR L858, EGFR T790M/L858R, INSR, IGF1R, EML4-ALK, JAK3, CSF1R, ALK F1196M-transferred protein dependent cell lines were obtained.
(§2) The number of viable cells was determined quantitatively by a microplate reader using Cell Titer-Glo® (Promega, US) chemiluminescence cell viability assay kit.

Assay [2] has as its system PC-9. The assay can be described thus: Growth of cancer cells (Cell Titer-Glo viability), PC-9. Format: cell-based. To be noted: Homo sapiens; PC-9 (EGFR delE746_A750 mutant), 72 hrs.
Source text: as §1, §2
For orientation: Cellular ATP, detected with luciferase, serves as a proxy for viable cell number.

Assay [3] relates to A431. Briefly: Growth of cancer cells (Cell Titer-Glo viability), A431. To be noted: Homo sapiens, A-431; A431 (wild-type EGFR), 72 hrs; read-out: GI50. Format: cell-based.
Source text: as §1, §2

Assay [4] deals with CHO. The assay can be described thus: Cell growth (Cell Titer-Glo viability), CHO. It counts as cell-based, Chinese hamster. To be noted: Cricetulus griseus; CHO Chinese hamster ovary cell, 72 hrs; read-out: GI50.
Source text: as §1, §2

In assay [5] the test system is CHL. Briefly: Cell growth (Cell Titer-Glo viability), CHL. To be noted: Cricetulus griseus; CHL Chinese hamster lung cell, 72 hrs; read-out: GI50. Format: cell-based, Chinese hamster.
Source text: as §1, §2

The test system of assay [6] is NCI-H2122. Briefly: Growth of cancer cells (Cell Titer-Glo viability), NCI-H2122. Format: cell-based. To be noted: Homo sapiens; NCI-H2122 (wild-type EGFR), 72 hrs.
Source text: as §1, §2

Assay [7] relates to A549. The assay can be described thus: Growth of cancer cells (Cell Titer-Glo viability), A549. To be noted: Homo sapiens; A549 (wild-type EGFR), 72 hrs. It counts as cell-based.
Source text: as §1, §2

The subject of assay [8] is HCC827. The assay can be described thus: Growth of cancer cells (Cell Titer-Glo viability), HCC827. It counts as cell-based. To be noted: Homo sapiens; HCC827 (mutant EGFR del19), 72 hrs.
Source text: as §1, §2

Assay [9] concerns NCI-H3122. The assay can be described thus: Growth of cancer cells (Cell Titer-Glo viability), NCI-H3122. It counts as cell-based. To be noted: Homo sapiens; NCI-H3122 (expressing ALK gene), 72 hrs; read-out: GI50.
Source text: as §1, §2

Assay [10] deals with NCI-H2228. Briefly: Growth of cancer cells (Cell Titer-Glo viability), NCI-H2228. To be noted: Homo sapiens; NCI-H2228 (wild-type ALK), 72 hrs. Format: cell-based.
Source text: as §1, §2

In assay [11] the test system is BaF3. The assay can be described thus: Cell growth (Cell Titer-Glo viability), BaF3. To be noted: BaF3 mouse primary B cell, 72 hrs. Format: cell-based.
Source text: as §1, §2

Assay [12] relates to BaF3-TEL-ALK. The assay can be described thus: Cell growth (Cell Titer-Glo viability), BaF3-TEL-ALK. To be noted: Mus musculus; BaF3-TEL-ALK (stably expressing ALK kinase), 72 hrs. It counts as cell-based.
Source text: as §1, §2

In assay [13] the test system is BaF3-ALK-F1174L. Briefly: Cell growth (Cell Titer-Glo viability), BaF3-ALK-F1174L. To be noted: Mus musculus; BaF3-ALK-F1174L (mutant ALK F1174L kinase), 72 hrs. Format: cell-based.
Source text: as §1, §2

The test system of assay [14] is BaF3-TEL-EGFR. The assay can be described thus: Cell growth (Cell Titer-Glo viability), BaF3-TEL-EGFR. Format: cell-based. To be noted: Mus musculus; BaF3-TEL-EGFR (stably expressing EGFR kinase), 72 hrs.
Source text: as §1, §2

For assay [15], the system named is BaF3-TEL-EGFR-T790M. The assay can be described thus: Cell growth (Cell Titer-Glo viability), BaF3-TEL-EGFR-T790M. Format: cell-based. To be noted: Mus musculus; BaF3-TEL-EGFR-T790M (EGFR T790M mutant kinase), 72 hrs.
Source text: as §1, §2

Assay [16] relates to BaF3-FL-EGFR-Del19. Briefly: Cell growth (Cell Titer-Glo viability), BaF3-FL-EGFR-Del19. Format: cell-based. To be noted: Mus musculus; BaF3-FL-EGFR-Del19 (EGFR delE746_A750 mutant kinase), 72 hrs.
Source text: as §1, §2

Molecules are shown by their SMILES.

One may read the GI50 as the concentration at which growth is held to half of that of the control. For `C=CC(=O)Nc1cc(Nc2ncc(Cl)c(Nc3ccccc3S(=O)(=O)C(C)C)n2)c(OC)cc1N1CCN(C)CC1` [Compound 2, N-(5-(5-chloro-4-(2-(isopropylsulfonyl)phenylamino)pyrimidin-2-ylamino)-4-methoxy-2-(4-methylpiperazin-1-yl)phenyl)acrylamide], the concentration for 50% growth inhibition (GI50) in [1] stood at 43 nM; in assay [2] it was 5 nM; in assay [3], 250 nM; in assay [4] it was 500 nM; in assay [5] it was 2000 nM; in [6], 3600 nM. Further, the GI50 was 870 nM in assay [7]; 10 nM in assay [8]; 33 nM in [9]; 250 nM in [10]; 1600 nM in assay [11]; above 10000 nM in assay [12]. Further, the concentration for 50% growth inhibition (GI50) in [13] is 670 nM; in [14] it was 450 nM; in assay [15] it was 12 nM; in assay [16], below 0.3 nM.

As for `C=CC(=O)Nc1cc(Nc2ncc(Cl)c(Nc3ccccc3S(=O)(=O)C(C)C)n2)c(OC)cc1N1CCNCC1` [Compound 4, N-(5-(5-chloro-4-(2-(isopropylsulfonyl)phenylamino)pyrimidin-2-ylamino)-4-methoxy-2-(piperazin-1-yl)phenyl) acrylamide], the concentration for 50% growth inhibition (GI50) was 24 nM in assay [1]; 45 nM in assay [2]; 430 nM in assay [3]; above 10000 nM in assay [4]; 4900 nM in assay [5]; 1300 nM in assay [6]. The GI50 in assay [7] is 2200 nM; in assay [8], 16 nM; in assay [9], 7 nM; in assay [10] it was 7.4 nM; in [11], 2000 nM; in assay [12], 8 nM. Also, the 50% growth inhibitory concentration (GI50) in assay [13] amounted to 1500 nM; in assay [15], 62 nM; in assay [16], 15 nM.

With `C=CC(=O)Nc1cc(Nc2ncc(Cl)c(Nc3ccccc3S(=O)(=O)C(C)C)n2)c(OC)cc1N1CCN(CCF)CC1` [Compound 9, N-(5-(5-chloro-4-(2-(isopropylsulfonyl)phenylamino)pyrimidin-2-ylamino)-2-(4-(2-fluoroethyl)piperazin-1-yl)-4-methoxyphenyl)acrylamide], the concentration for 50% growth inhibition (GI50) in assay [1] was 59 nM; in assay [2], 43 nM; in [3], 320 nM; in assay [4], 1000 nM; in assay [5], 4300 nM; in assay [6], 680 nM. The 50% growth inhibitory concentration (GI50) in assay [7] is 1300 nM; in assay [8] it was 35 nM; in assay [9] it was 42 nM; in assay [10], 260 nM; in [11] it was 2900 nM; in assay [12], above 10000 nM. The GI50 in assay [13] is 540 nM; in assay [14], 650 nM; in [15] it was 47 nM; in assay [16] it was below 0.3 nM.

As for `C=CC(=O)Nc1cc(Nc2ncc(Cl)c(Nc3cccc(C(F)(F)F)c3)n2)c(OC)cc1N1CCN(C)CC1` [Compound 18, N-(5-(5-chloro-4-(3-(trifluoromethyl)phenylamino)pyrimidin-2-ylamino)-4-methoxy-2-(4-methylpiperazin-1-yl)phenyl)acrylamide], the concentration for 50% growth inhibition (GI50) worked out at 260 nM in assay [1]; 160 nM in assay [2]; 4600 nM in [3]; 5400 nM in assay [4]; 4200 nM in assay [5]; 3400 nM in assay [6]. In addition, the GI50 in [7] is above 10000 nM; in assay [8], 46 nM; in assay [9], 770 nM; in assay [10], 170 nM; in assay [11], 4300 nM; in assay [12], 180 nM. Besides, the concentration for 50% growth inhibition (GI50) was 1700 nM in assay [13], 80 nM in assay [15] and below 0.3 nM in [16].

Turning to `C=CC(=O)Nc1cc(Nc2ncc(Cl)c(Nc3ccc(F)c(Cl)c3)n2)c(OC)cc1N1CCN(C)CC1` [Compound 21, N-(5-(5-chloro-4-(3-chloro-4-fluorophenylamino)pyrimidin-2-ylamino)-4-methoxy-2-(4-methylpiperazin-1-yl)phenyl)acrylamide], the GI50 in [1] is 100 nM; in assay [2] it was 31 nM; in assay [3], 1100 nM; in assay [4], 6200 nM; in [5], above 10000 nM; in assay [6] it was 1400 nM. The concentration for 50% growth inhibition (GI50) in assay [7] was above 10000 nM; in [8], 28 nM; in assay [9], 300 nM; in assay [10], 78 nM; in assay [11], 6800 nM; in [12] it was 43 nM. Also, the values for the GI50 in assay [13], in [15] and in assay [16] were 740 nM, 35 nM and below 0.3 nM, respectively.

On to `C=CC(=O)Nc1cc(Nc2ncc(Cl)c(Nc3ccccc3S(=O)(=O)N(C)C)n2)c(OC)cc1N1CCN(C)CC1` [Compound 32, N-(5-(5-chloro-4-(2-(N,N-dimethylsulfamido)phenylamino)pyrimidin-2-ylamino)-4-methoxy-2-(4-methylpiperazin-1-yl)phenyl)acrylamide], for which the GI50 is 31 nM in [1]; below 3 nM in [2]; 220 nM in assay [3]; 340 nM in assay [4]; 1600 nM in [5]; 370 nM in [6]. Further, the GI50 in assay [7] was 600 nM; in [8], below 3 nM; in [9], 11 nM; in assay [10] it was 490 nM; in [11], 1100 nM; in assay [12], above 10000 nM. For the same molecule, the GI50 in assay [13] was 530 nM; in assay [14] it was 500 nM; in [15], 10 nM; in assay [16] it was below 0.3 nM.
